# Source: US7368567B2, “Arylsulfonyl benzodioxanes, benzoxazines and benzothiazines as 5-HT6 antagonists” (Roche Palo Alto LLC, priority 2004, dated 2008)
# Biological target: T1, recombinant human 5-HT6 receptor (Homo sapiens, UniProt P50406)
# T1 construct: expressed in transfected cells
# Assay: Radioligand binding, [3H]LSD competition in HEK293 cell membranes
# Details: [3H]LSD displacement, 37° C., pH 7.4, read-out: pKi for the 5-HT6 receptor (converted)
# Method: The binding activity of compounds of this invention in vitro was determined as follows. Duplicate determinations of 5-HT6 ligand affinity were made by competing for binding of [^3H]LSD in cell membranes derived from HEK293 cells stably expressing recombinant human 5-HT6 receptor. Duplicate determinations of 5-HT2A ligand affinity were made by competing for binding of [^3H]Ketanserin (3-(2-(4-(4-fluorobenzoyl)piperidinol)ethyl)-2,4(1H,3H)-quinazolinedione) in cell membranes derived from CHO—K1 cells stably expressing recombinant human 5-HT2A receptor. Membranes were prepared from HEK 293 cell lines by the method described by Monsma et al., Molecular Pharmacology, Vol. 43 pp. 320-327 (1993), and from CHO—K1 cell lines as described by Bonhaus et al., Br J Pharmacol. June;1 15(4):622-8 (1995).
# For estimation of affinity at the 5-HT6 receptor, all determinations were made in assay buffer containing 50 mM Tris-HCl, 10 mM MgSO4, 0.5 mM EDTA, 1 mM ascorbic acid, pH 7.4 at 37° C., in a 250 microliter reaction volume. […]
# Assay tubes containing [^3H] […] LSD or [^3H]Ketanserin were determined as radioactive counts per minute using Packard TopCount.
# Displacement of [^3H]LSD or [^3H]Ketanserin from the binding sites was quantified by fitting concentration-binding data to a 4-parameter logistic equation: […]
# T1 sequence (P50406 whole entry): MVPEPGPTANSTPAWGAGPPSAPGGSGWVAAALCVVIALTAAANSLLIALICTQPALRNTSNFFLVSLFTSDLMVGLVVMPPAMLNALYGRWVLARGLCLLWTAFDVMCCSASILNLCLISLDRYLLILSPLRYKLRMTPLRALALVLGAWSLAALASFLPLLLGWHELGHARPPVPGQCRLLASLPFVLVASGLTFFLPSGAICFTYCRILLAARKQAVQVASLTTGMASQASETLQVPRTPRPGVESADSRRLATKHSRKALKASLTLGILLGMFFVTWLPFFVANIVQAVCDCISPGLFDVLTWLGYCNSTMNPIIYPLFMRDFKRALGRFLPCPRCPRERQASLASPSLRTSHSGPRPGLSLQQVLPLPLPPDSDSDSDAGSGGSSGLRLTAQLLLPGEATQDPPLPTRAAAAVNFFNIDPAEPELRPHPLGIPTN
row,Structure (SMILES),Ki [nM]
1,"CNC[C@@H]1COc2ccc(S(=O)(=O)c3ccccc3)cc2O1 [(7-Benzenesulfonyl-2,3-dihydro-benzo[1,4]dioxin-2-(R)-ylmethyl)-methyl-amine]",~0.166

# Test system: not given
# Assay: not given
# Details: not given
row,Structure (SMILES),melting point [°C]
1,"O=S(=O)(c1ccccc1)c1ccc2c(c1)O[C@@H](CN1CCC(O)C1)CO2 (stereo in doubt) [Compound 37, 1-(7-Benzenesulfonyl-2,3-dihydro-benzo[1,4]dioxin-2-ylmethyl)-pyrrolidin-3-ol]",94.7 to 96.4
2,"CN(C)C[C@@H]1COc2ccc(S(=O)(=O)c3cccc(F)c3)cc2O1 (stereo in doubt) [Compound 14, [7-(3-Fluoro-benzenesulfonyl)-2,3-dihydro-benzo[1,4]dioxin-2-ylmethyl]-dimethyl-amine]",228.7 to 231.3
3,"O=S(=O)(c1ccccc1)c1ccc2c(c1)O[C@@H](CN1CCNCC1)CO2 (stereo in doubt) [Compound 30, 1-(7-Benzenesulfonyl-2,3-dihydro-benzo[1,4]dioxin-2-ylmethyl)-piperazine]",279.2 to 279.4
4,"CC(C)NC[C@H]1COc2ccc(S(=O)(=O)c3ccccc3)cc2O1 (stereo in doubt) [Compound 24, (7-Benzenesulfonyl-2,3-dihydro-benzo[1,4]dioxin-2-ylmethyl)-isopropyl-amine]",224.9 to 228.8
5,O=S(=O)(c1cccc(F)c1)c1ccc2c(c1)O[C@H](CN1CC1)CO2 (stereo in doubt),215.4 to 217.2
6,"CN(C)C[C@H]1COc2ccc(S(=O)(=O)c3ccccc3)cc2O1 (stereo in doubt) [Compound 23, (7-Benzenesulfonyl-2,3-dihydro-benzo[1,4]dioxin-2-ylmethyl)-dimethyl-amine]",232 to 233.5
7,"CC(C)NC[C@@H]1COc2ccc(S(=O)(=O)c3cccc(F)c3)cc2O1 (stereo in doubt) [Compound 15, [7-(3-Fluoro-benzenesulfonyl)-2,3-dihydro-benzo[1,4]dioxin-2-ylmethyl]-isopropyl-amine]",242.4 to 243.8
8,"N=C(N)NC[C@H]1COc2ccc(S(=O)(=O)c3ccccc3)cc2O1 (stereo in doubt) [Compound 31, N-(7-Benzenesulfonyl-2,3-dihydro-benzo[1,4]dioxin-2-ylmethyl)-guanidine]",126.5 to 128.3
9,"O=S(=O)(c1cccc(F)c1)c1ccc2c(c1)O[C@@H](CNCc1ccccc1)CO2 (stereo in doubt) [Compound 11, Benzyl-[7-(3-fluoro-benzenesulfonyl)-2,3-dihydro-benzo[1,4]dioxin-2-ylmethyl]-amine]",195.1 to 197.1
10,"COCCNC[C@@H]1COc2ccc(S(=O)(=O)c3cccc(F)c3)cc2O1 (stereo in doubt) [Compound 17, [7-(3-Fluoro-benzenesulfonyl)-2,3-dihydro-benzo[1,4]dioxin-2-ylmethyl]-(2-methoxy-ethyl)-amine]",193 to 196.9
11,"CNC[C@H]1COc2ccc(S(=O)(=O)c3ccc(C)cc3)cc2O1 (stereo in doubt) [Compound 12, Methyl-[7-(toluene-4-sulfonyl)-2,3-dihydro-benzo[1,4]dioxin-2-ylmethyl]-amine]",213 to 214.1
12,"CNC[C@H]1COc2ccc(S(=O)(=O)c3ccccc3)cc2O1 [Compound 2, (7-Benzenesulfonyl-2,3-dihydro-benzo[1,4]dioxin-2--(S)-ylmethyl)-methyl-amine]",240 to 243.6
13,"NC(=O)NC[C@H]1COc2ccc(S(=O)(=O)c3ccccc3)cc2O1 (stereo in doubt) [Compound 40, (7-Benzenesulfonyl-2,3-dihydro-benzo[1,4]dioxin-2-ylmethyl)-urea]",104.9 to 105.7
14,"NC[C@H]1COc2ccc(S(=O)(=O)c3cccc(F)c3)cc2O1 [Compound 9, C-[7-(3-Fluoro-benzenesulfonyl)-2,3-dihydro-benzo[1,4]dioxin-2-(S)-yl]-methylamine]",224.9 to 227.9
15,"CNC[C@@H]1COc2ccc(S(=O)(=O)c3cccc(C)c3)cc2O1 (stereo in doubt) [Compound 28, Methyl-[7-(toluene-3-sulfonyl)-2,3-dihydro-benzo[1,4]dioxin-2-ylmethyl]-amine]",99.9 to 106.1
16,"O=S(=O)(c1ccccc1)c1ccc2c(c1)O[C@@H](CNCc1ccccc1)CO2 (stereo in doubt) [Compound 21, (7-Benzenesulfonyl-2,3-dihydro-benzo[1,4]dioxin-2-ylmethyl)-benzyl-amine]",220.9 to 224.9
17,"COCCNC[C@H]1COc2ccc(S(=O)(=O)c3ccccc3)cc2O1 (stereo in doubt) [Compound 26, (7-Benzenesulfonyl-2,3-dihydro-benzo[1,4]dioxin-2-ylmethyl)-(2-methoxy-ethyl)-amine]",169.3 to 171.9
18,"O=S(=O)(c1ccccc1)c1ccc2c(c1)O[C@@H](Cn1ccnc1)CO2 (stereo in doubt) [Compound 34, 1-(7-Benzenesulfonyl-2,3-dihydro-benzo[1,4]dioxin-2-ylmethyl)-1H-imidazole]",88 to 90
19,"O=S(=O)(c1ccccc1)c1ccc2c(c1)O[C@H](CN1CCCC1)CO2 [Compound 10, 1-(7-Benzenesulfonyl-2,3-dihydro-benzol[1,4]dioxin-2-(R)-ylmethyl)-pyrrolidine]",75.8 to 112.7
20,O=S(=O)(c1ccccc1)c1ccc2c(c1)O[C@@H](CN1CC1)CO2 (stereo in doubt),203.9 to 206.6
21,"CCNC[C@@H]1COc2ccc(S(=O)(=O)c3cccc(F)c3)cc2O1 (stereo in doubt) [Compound 13, Ethyl-[7-(3-fluoro-benzenesulfonyl)-2,3-dihydro-benzo[1,4]dioxin-2-ylmethyl]-amine]",247.5 to 251.3
22,"CNC[C@H]1COc2cc(S(=O)(=O)c3ccccc3)ccc2O1 [Compound 5, (6-Benzenesulfonyl-2,3-dihydro-benzo[1,4]dioxin-2-(S)-ylmethyl)-methyl-amine]",218.2 to 220.5
23,"CNC[C@H]1COc2ccc(S(=O)(=O)c3cccc(C#N)c3)cc2O1 (stereo in doubt) [Compound 38, 3-(3-Methylaminomethyl-2,3-dihydro-benzo[1,4]dioxine-6-sulfonyl)-benzonitrile]",190.6 to 192.1
24,"CNC[C@@H]1COc2ccc(S(=O)(=O)c3cccc(F)c3)cc2O1 [Compound 8, [7-(3-Fluoro-benzenesulfonyl)-2,3-dihydro-benzo[1,4]dioxin-2-(R)-ylmethyl]-methyl-amine]",250.1 to 254.3
25,"O=S(=O)(c1cccc(F)c1)c1ccc2c(c1)O[C@H](CN1CCC1)CO2 (stereo in doubt) [Compound 16, 1-[7-(3-Fluoro-benzenesulfonyl)-2,3-dihydro-benzo[1,4]dioxin-2-ylmethyl]-azetidine]",100.8 to 108.3
26,"CN(O)C[C@H]1COc2ccc(S(=O)(=O)c3ccccc3)cc2O1 (stereo in doubt) [Compound 33, N-(7-Benzenesulfonyl-2,3-dihydro-benzo[1,4]dioxin-2-ylmethyl)-N-methylhydroxylamine]",199.2 to 200.8
27,"CNC[C@@H]1COc2cc(S(=O)(=O)c3ccccc3)ccc2O1 [Compound 4, (6-Benzenesulfonyl-2,3-dihydro-benzo[1,4]dioxin-2-(R)-ylmethyl)-methyl-amine]",219.7 to 225.4
28,"CNC[C@@H]1COc2ccc(S(=O)(=O)c3ccccc3C)cc2O1 (stereo in doubt) [Compound 29, Methyl-[7-(toluene-2-sulfonyl)-2,3-dihydro-benzo[1,4]dioxin-2-ylmethyl]-amine]",169 to 170.8
29,"CCNC[C@H]1COc2ccc(S(=O)(=O)c3ccccc3)cc2O1 (stereo in doubt) [Compound 27, (7-Benzenesulfonyl-2,3-dihydro-benzo[1,4]dioxin-2-ylmethyl)-ethyl-amine]",242.2 to 246.7
30,"CNCC1COc2ccc(S(=O)(=O)c3ccccc3)cc2O1 (racemic) [Compound 1, (+−)-(7-Benzenesulfonyl-2,3-dihydro-benzo[1,4]dioxin-2-ylmethyl)-methyl-amine]",198 to 199.4
